Measurements from the NIST ThermoML archive (doi:10.1016/j.jct.2018.03.001).
Numbers after ± are expanded uncertainties.

Test: molar enthalpy of vaporization or sublimation
Conditions: 298.15 K; Liquid; Static calorimetry

| Structure (SMILES) | molar enthalpy |
| --- | --- |
| NCCN1CCOCC1 [4-morpholineethanamine] | 15.3 ± 0.932 kcal/mol |
| NCCCN1CCOCC1 [N-(3-aminopropyl)morpholine] | 14.8 ± 0.86 kcal/mol |
